In patent US20230416275A1, “MODULATORS OF CYSTIC FIBROSIS TRANSMEMBRANE CONDUCTANCE REGULATOR” (VERTEX PHARMACEUTICALS INCORPORATED, priority 2020, published 2023):
Like-named read-outs stand apart in the source and are kept apart here.

Assays:
[1] = amide bond; 14-membered ring; HATU/DIEA; DMF; 3 steps
[2] = target: T1, CFTR-mediated chloride transport in human intestinal epithelial enteroid cells (Homo sapiens, UniProt P13569); test: Membrane potential dye, Enteroid Assay A; assay type: cell-based; details: for Ent. A Max Activity (%): % of chloride transport of triple combination control (3 μM N-[(6-amino-2-pyridyl)sulfonyl]-6-(3-fluoro-5-isobutoxy-phenyl)-2-[(4S)-2,2,4-trimethylpyrrolidin-1-yl]pyridine-3-carboxamide, 3 μM tezacaftor, 300 nM acute ivacaftor); for EC50: enteroid cells, 18-24 hours incubation, acute 10 μM forskolin and 300 nM ivacaftor, read-out: Ent. A EC50
Outline: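 Enteroids seeded at 5000 cells/well were exposed to test compound in IEMM for 18-24 h at 37 °C, then loaded with methyl oxonol membrane potential dye. Chloride transport was triggered in chloride-free buffer with 10 μM forskolin, 100 μM IBMX and 300 nM Compound III, read by fluorescence for 15 min and expressed as % of a triple-combination control.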

CFTR = CFTR (Homo sapiens, UniProt P13569); test: standard Ussing Chamber Assay for CFTR potentiator activity; assay type: cell-based
Experimental: tert-Butyl N-[(6R,12R)-6-benzyloxy-12-methyl-6,15-bis(trifluoromethyl)-13,19-dioxa-3,4,18-triazatricyclo[12.3.1.12,5]nonadeca-1(18),2,4,14,16-pentaen-17-yl]-N-tert-butoxycarbonyl-carbamate (8.6 g, 11.77 mmol) was dissolved in ethanol (172 mL) then the flask was cycled 3 times between vacuum/nitrogen. Treated the mixture with 10% Pd/C (50% water wet, 1.8 g of 5% w/w, 0.8457 mmol) then cycled 3 times between vacuum/nitrogen and 3 times between vacuum/hydrogen and then stirred vigorously under hydrogen (balloon) at room temperature for 18 hours. The mixture was cycled 3 times between vacuum/nitrogen, filtered over Celite, washing with ethanol, and then the filtrate was evaporated to give 7.3 g of tert-butyl N-tert-butoxycarbonyl-N-[(6R,12R)-6-hydroxy-12-methyl-6,15-bis(trifluoromethyl)-13,19-dioxa-3,4,18-triazatricyclo[12.3.1.12,5]nonadeca-1(18),2,4,14,16-pentaen-17-yl]carbamate an off-white solid. 1H NMR and MS confirmed the expected product. CFTR modulatory activity was confirmed using a standard Ussing Chamber Assay for CFTR potentiator activity.

F508del in NIH 3T3 cells = target: T2, F508del in NIH 3T3 cells (Homo sapiens, UniProt P13569, DEL508-508); test: 3T3 assay: membrane potential optical assay for F508del correction; assay type: cell-based, mouse; details: for EC50: F508del NIH 3T3 cells, compound incubation 18-24 hours at 37° C., forskolin activation, read-out: 3T3 EC50; for Emax: NIH3T3, F508del NIH 3T3 cells, efficacy compared to lumacaftor in combination with acutely added 300 nM Ivacaftor, read-out: 3T3 Max Activity (%)
T2 construct: expressed in transfected cells
Outline: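 NIH3T3 mouse fibroblasts stably expressing F508del incubated with corrector compounds at a range of concentrations for 16-24 h at 37 °C, then loaded with voltage-sensing redistribution dye. Single addition of forskolin with Cl− gradient (chloride-free gluconate bath vs. NaCl bath, pH 7.4); membrane potential change read by fluorescence on FLIPR.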

[3] = target: T1, CFTR-mediated chloride transport in human intestinal epithelial enteroid cells; test: Membrane potential dye, Enteroid Assay B; assay type: cell-based; details: for Ent. B Max Activity (%): % of chloride transport of triple combination control (1 μM (14S)-8-[3-(2-{Dispiro[2.0.2.1]heptan-7-yl}ethoxy)-1H-pyrazol-1-yl]-12,12-dimethyl-... macrocycle, 3 μM tezacaftor, 300 nM acute ivacaftor); for EC50: enteroid cells, 18-24 hours incubation, acute 10 μM forskolin and 300 nM ivacaftor, read-out: Ent. B EC50
Experimental: Base medium (ADF+++) consisted of Advanced DMEM/Ham's F12, 2 mM Glutamax, 10 mM HEPES, […] penicillin/streptomycin.
Intestinal enteroid maintenance medium (IEMM) consisted of ADF+++, 1×B27 supplement, 1×N2 supplement, 1.25 mM N-acetyl cysteine, 10 mM Nicotinamide, 50 ng/mL hEGF, 10 nM Gastrin, 1 μg/mL hR-spondin-1, 100 ng/mL hNoggin, TGF-b type 1 inhibitor A-83-01, 100 μg/mL Primocin, 10 μM P38 MAPK inhibitor SB202190.
Bath 1 Buffer consisted of 1 mM MgCl2, 160 mM NaCl, 4.5 mM KCl, 10 mM HEPES, 10 mM Glucose, 2 mM CaCl2.
Chloride Free Buffer consisted of 1 mM Magnesium Gluconate, 2 mM Calcium Gluconate, 4.5 mM Potassium Gluconate, 160 mM Sodium Gluconate, 10 mM HEPES, 10 mM Glucose.
Bath1 Dye Solution consisted of Bath 1 Buffer, 0.04% Pluronic F127, 20 μM Methyl Oxonol, 30 μM CaCCinh-A01, 30 μM Chicago Sky Blue.
Chloride Free Dye Solution consisted of Chloride Free Buffer, 0.04% Pluronic F127, 20 μM Methyl Oxonol, 30 μM CaCCinh-A01, 30 μM Chicago Sky Blue.
Chloride Free Dye Stimulation Solution consisted of Chloride Free Dye Solution, 10 μM forskolin, 100 μM IBMX, and 300 nM Compound III.
Human intestinal epithelial enteroid cells were obtained from the Hubrecht Institute for Developmental Biology and Stem Cell Research, Utrecht, The Netherlands and expanded in T-Flasks as previously described (Dekkers J F, Wiegerinck C L, de Jonge H R, Bronsveld I, Janssens H M, de Winter-de Groot K M, Brandsma A M, de Jong N W M, Bijvelds M J C, Scholte B J, Nieuwenhuis E E S, van den Brink S, Clevers H, van der Ent C K, Middendorp S and M Beekman J M. A functional CFTR assay using primary cystic fibrosis intestinal organoids. Nat Med. 2013 July; 19(7):939-45).
c. Enteroid Cell Harvesting and Seeding
Cells were recovered in cell recovery solution, collected by centrifugation at 650 rpm for 5 minutes at 4° C., resuspended in TrypLE and incubated for 5 minutes at 37° C. Cells were then collected by centrifugation at 650 rpm for 5 minutes at 4° C. and resuspended in IEMM containing 10 μM ROCK inhibitor (RI). The cell suspension was passed through a 40 μm cell strainer and resuspended at 1×10^6 cells/mL in IEMM containing 10 μM RI. Cells were seeded at 5000 cells/well into multi-well plates and incubated for overnight at 37° C., 95% humidity and 5% CO2 prior to assay.
e. Membrane Potential Dye, Enteroid Assay B
Enteroid cells were incubated with test compound in IEMM for 18-24 hours at 37° C., 95% humidity and 5% CO2. […] Briefly, cells were washed 5 times in Bath 1 Buffer. Bath 1 Dye Solution was added and the cells were incubated for 25 minutes at room temperature. Following dye incubation, cells were washed 3 times in Chloride Free Dye Solution. Chloride transport was initiated by addition of Chloride Free Dye Stimulation Solution and the fluorescence signal was read for 15 minutes. […] Chloride transport was then expressed as a percentage of the chloride transport following treatment with 1 μM (14S)-8-[3-(2-{Dispiro[2.0.2.1]heptan-7-yl}ethoxy)-1H-pyrazol-1-yl]-12,12-dimethyl-2λ^6-thia-3,9,11,18,23-pentaazatetracyclo[17.3.1.111,14.05,10]tetracosa-1(22),5,7,9,19(23),20-hexaene-2,2,4-trione, 3 μM (R)-1-(2,2-difluorobenzo[d][1,3]dioxol-5-yl)-N-(1-(2,3-dihydroxypropyl)-6-fluoro-2-(1-hydroxy-2-methylpropan-2-yl)-1H-indol-5-yl)cyclopropanecarboxamide and 300 nM acute N-[2,4-bis(1,1-dimethylethyl)-5-hydroxyphenyl]-1,4-dihydro-4-oxoquinoline-3-carboxamide triple combination control (% Activity).

T1 sequence (P13569 with tags, fused parts or gaps DEL508-508): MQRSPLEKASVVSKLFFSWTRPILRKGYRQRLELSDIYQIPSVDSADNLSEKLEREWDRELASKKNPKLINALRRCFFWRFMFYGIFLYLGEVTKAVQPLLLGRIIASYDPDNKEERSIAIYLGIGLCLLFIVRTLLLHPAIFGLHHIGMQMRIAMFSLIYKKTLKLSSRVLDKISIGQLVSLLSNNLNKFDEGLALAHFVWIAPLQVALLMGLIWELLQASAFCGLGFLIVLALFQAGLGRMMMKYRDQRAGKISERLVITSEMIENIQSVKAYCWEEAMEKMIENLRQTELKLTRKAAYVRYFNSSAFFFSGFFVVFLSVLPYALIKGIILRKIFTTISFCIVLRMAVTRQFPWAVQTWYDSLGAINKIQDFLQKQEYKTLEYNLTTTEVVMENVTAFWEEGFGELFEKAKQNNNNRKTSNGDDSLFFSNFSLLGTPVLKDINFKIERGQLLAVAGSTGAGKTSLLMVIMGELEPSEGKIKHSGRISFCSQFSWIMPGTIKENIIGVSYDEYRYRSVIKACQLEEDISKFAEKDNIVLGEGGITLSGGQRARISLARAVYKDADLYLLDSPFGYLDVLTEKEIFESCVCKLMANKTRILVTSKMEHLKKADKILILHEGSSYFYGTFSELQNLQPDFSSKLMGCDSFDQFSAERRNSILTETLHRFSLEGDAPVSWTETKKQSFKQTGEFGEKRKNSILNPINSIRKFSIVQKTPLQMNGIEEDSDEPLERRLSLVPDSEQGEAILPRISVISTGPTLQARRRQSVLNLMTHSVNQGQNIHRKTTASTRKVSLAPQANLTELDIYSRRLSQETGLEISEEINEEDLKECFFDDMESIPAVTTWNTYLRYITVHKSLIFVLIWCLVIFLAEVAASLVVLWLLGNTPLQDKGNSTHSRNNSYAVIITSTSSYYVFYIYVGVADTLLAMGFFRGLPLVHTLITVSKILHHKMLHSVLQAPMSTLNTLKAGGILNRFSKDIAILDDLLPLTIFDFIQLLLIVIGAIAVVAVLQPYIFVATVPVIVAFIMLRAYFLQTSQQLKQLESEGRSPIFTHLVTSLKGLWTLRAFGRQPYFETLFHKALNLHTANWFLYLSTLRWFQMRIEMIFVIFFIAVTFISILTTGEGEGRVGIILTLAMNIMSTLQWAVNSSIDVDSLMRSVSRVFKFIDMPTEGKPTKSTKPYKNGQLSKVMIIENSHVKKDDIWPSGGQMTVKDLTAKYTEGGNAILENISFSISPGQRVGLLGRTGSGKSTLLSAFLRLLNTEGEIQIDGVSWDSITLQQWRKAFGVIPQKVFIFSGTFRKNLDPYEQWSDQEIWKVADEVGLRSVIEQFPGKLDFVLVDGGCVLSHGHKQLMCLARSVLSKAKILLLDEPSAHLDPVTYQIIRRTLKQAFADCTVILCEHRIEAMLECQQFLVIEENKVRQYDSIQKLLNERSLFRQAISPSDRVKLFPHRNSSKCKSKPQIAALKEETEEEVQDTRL
T2 sequence (P13569 with tags, fused parts or gaps DEL508-508): as above
Chain of CFTR (P13569 whole entry, species assumed): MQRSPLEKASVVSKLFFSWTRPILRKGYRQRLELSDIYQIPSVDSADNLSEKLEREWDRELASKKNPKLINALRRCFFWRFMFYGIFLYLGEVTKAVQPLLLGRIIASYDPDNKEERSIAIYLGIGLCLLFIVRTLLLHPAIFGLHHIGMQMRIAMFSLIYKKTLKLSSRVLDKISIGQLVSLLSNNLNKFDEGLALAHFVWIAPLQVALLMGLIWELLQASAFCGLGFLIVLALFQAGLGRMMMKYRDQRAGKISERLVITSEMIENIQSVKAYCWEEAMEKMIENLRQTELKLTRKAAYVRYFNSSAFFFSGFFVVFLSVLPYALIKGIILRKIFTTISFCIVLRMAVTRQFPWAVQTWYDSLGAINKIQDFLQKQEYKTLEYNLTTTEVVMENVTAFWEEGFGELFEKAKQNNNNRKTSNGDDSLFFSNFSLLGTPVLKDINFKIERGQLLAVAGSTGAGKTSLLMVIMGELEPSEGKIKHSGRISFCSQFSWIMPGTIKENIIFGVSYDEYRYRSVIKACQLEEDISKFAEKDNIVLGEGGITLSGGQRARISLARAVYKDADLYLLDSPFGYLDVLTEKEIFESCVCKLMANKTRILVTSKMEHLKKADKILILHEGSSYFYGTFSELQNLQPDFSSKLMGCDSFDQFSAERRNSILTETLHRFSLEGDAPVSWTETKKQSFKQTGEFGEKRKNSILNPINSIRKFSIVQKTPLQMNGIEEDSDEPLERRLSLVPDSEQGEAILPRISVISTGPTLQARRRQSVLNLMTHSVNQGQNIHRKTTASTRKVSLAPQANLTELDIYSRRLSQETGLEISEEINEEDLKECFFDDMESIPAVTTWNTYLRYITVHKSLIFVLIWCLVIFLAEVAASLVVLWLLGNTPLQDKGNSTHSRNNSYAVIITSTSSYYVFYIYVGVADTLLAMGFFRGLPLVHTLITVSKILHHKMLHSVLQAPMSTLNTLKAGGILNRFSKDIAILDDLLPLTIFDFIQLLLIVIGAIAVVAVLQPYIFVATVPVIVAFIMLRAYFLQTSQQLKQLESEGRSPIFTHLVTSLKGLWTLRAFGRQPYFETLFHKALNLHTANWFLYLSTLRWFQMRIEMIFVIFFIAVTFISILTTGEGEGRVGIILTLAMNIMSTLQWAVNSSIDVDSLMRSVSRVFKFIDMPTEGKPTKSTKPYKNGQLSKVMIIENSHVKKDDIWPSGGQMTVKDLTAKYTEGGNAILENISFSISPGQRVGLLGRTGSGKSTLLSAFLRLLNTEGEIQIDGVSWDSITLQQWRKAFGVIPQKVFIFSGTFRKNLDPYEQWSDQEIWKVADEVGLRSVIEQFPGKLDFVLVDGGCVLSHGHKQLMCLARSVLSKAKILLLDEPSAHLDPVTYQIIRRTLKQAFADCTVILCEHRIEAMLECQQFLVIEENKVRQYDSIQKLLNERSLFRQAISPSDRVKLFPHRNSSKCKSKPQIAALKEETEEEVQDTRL

Work on `Cc1cccc(C)c1-c1cc2nc(n1)NS(=O)(=O)c1cccc(c1)NC(=O)c1cc(ccc1Br)O2` yielded a ring closure, isolated yield [1] of 20%.
With `Cc1cccc(C)c1-c1cc2nc(n1)NS(=O)(=O)c1cccc(c1)NC(=O)c1cccc(c1C)O2` the ring closure, isolated yield [1] was 33%.
With `Cc1cccc(C)c1-c1cc2nc(n1)NS(=O)(=O)c1cncc(c1)NC(=O)C1CC(CN(C(=O)OC(C)(C)C)C1)O2` (racemic) [Compound 14, tert-Butyl 19-(2,6-dimethylphenyl)-8,15,15-trioxo-2-oxa-15λ^6-thia-5,9,12,16,18,21-hexaazatetracyclo[15.3.1.13,7.110,14]tricosa-1(21),10,12,14(22),17,19-hexaene-5-carboxylate] the ring closure, yield after HPLC (from Cc1cccc(C)c1-c1cc(OC2CC(C(=O)Oc3c(F)c(F)c(F)c(F)c3F)CN(C(=O)OC(C)(C)C)C2)nc(NS(=O)(=O)c2cncc(N)c2)n1, amide bond, 14-membered ring, none (thermal, OPfp ester), NMP, 12.1 mM, 140.0 °C, 5.0 h, 5 steps) was 1%, the “Ent. A Max Activity (%)” value [2] was “+ (+ is <30%)” and the EC50 [2] was under 1 µM.
For `C[C@@H]1CCCCC[C@](O)(C(F)(F)F)C2=NN=C(O2)c2nc(c(C(F)(F)F)cc2N)O1` [(6R,12R)-17-amino-12-methyl-6,15-bis(trifluoromethyl)-13,19-dioxa-3,4,18-triazatricyclo[12.3.1.12,5]nonadeca-1(18),2,4,14,16-pentaen-6-ol], the CFTR modulatory activity (CFTR) was “confirmed”.
In the case of `Cc1cccc(C)c1-c1cc2nc(n1)NS(=O)(=O)c1cccc(c1)NC(=O)c1cc(ccc1Cl)O2` [Compound 55, 18-chloro-5-(2,6-dimethylphenyl)-9,9-dioxo-2-oxa-9λ^6-thia-6,8,15,23-tetraazatetracyclo[15.3.1.13,7.110,14]tricosa-1(21),3,5,7(23),10(22),11,13,17,19-nonaen-16-one], the ring closure, yield after HPLC (from Cc1cccc(C)c1-c1cc(Oc2ccc(Cl)c(C(=O)O)c2)nc(NS(=O)(=O)c2cccc(N)c2)n1, amide bond, 14-membered ring, HATU/DIEA, 1.0 h) is reported as 38%, the EC50 (F508del in NIH 3T3 cells) is reported as under 1000 nM and the Emax (F508del in NIH 3T3 cells) is reported as over 60%. For the same molecule, the “Ent. A Max Activity (%)” value [2] was “+++ (+++ is >60%)” and the EC50 [2] was 1 to 3 µM.
With `Cc1cccc(C)c1-c1cc2nc(n1)NS(=O)(=O)c1cccc(c1)NC(=O)CCCc1cccc(c1)O2` [Compound 65, 5-(2,6-Dimethylphenyl)-9,9-dioxo-2-oxa-9λ^6-thia-6,8,15,26-tetraazatetracyclo[18.3.1.13,7.110,14]hexacosa-1(23),3,5,7(26),10(25),11,13,20(24),21-nonaen-16-one] the ring closure, yield after HPLC (from Cc1cccc(C)c1-c1cc(Oc2cccc(CCCC(=O)O)c2)nc(NS(=O)(=O)c2cccc(N)c2)n1, amide bond, 17-membered ring, HATU/DIEA, DMF, 56.8 mM, 0.033 h) was 28%, the EC50 (F508del in NIH 3T3 cells) was under 1000 nM and the Emax (F508del in NIH 3T3 cells) was over 60%. For the same molecule, the “Ent. A Max Activity (%)” value [2] was “+++ (+++ is >60%)” and the EC50 [2] was 1 to 3 µM.
In the case of `Cc1ccc2cc1Oc1cc(-c3c(C)cccc3C)nc(n1)NS(=O)(=O)c1cccc(c1)NC(=O)CC2` [Compound 66, 5-(2,6-Dimethylphenyl)-22-methyl-9,9-dioxo-2-oxa-9λ^6-thia-6,8,15,25-tetraazatetracyclo[17.3.1.13,7.110,14]pentacosa-1(22),3,5,7(25),10(24),11,13,19(23),20-nonaen-16-one], the ring closure, yield after HPLC (amide bond, 16-membered ring, none (thermal, isolated OPfp ester), NMP, 67.6 mM, 100.0 °C, 4 steps) is reported as 6%, the EC50 (F508del in NIH 3T3 cells) is reported as under 1000 nM and the Emax (F508del in NIH 3T3 cells) is reported as over 60%. For the same molecule, the “Ent. A Max Activity (%)” value [2] was “+++ (+++ is >60%)” and the EC50 [2] was 1 to 3 µM.
`Cc1cccc(C)c1-c1cc2cc(n1)NS(=O)(=O)c1cccc(c1)NC(=O)c1cccc(c1)O2` [Compound 77, 5-(2,6-Dimethylphenyl)-9,9-dioxo-2-oxa-9λ^6-thia-6,8,15-triazatetracyclo[15.3.1.13,7.110,14]tricosa-1(20),3,5,7(23),10(22),11,13,17(21),18-nonaen-16-one] showed a ring closure, yield after HPLC (amide bond, 14-membered ring, HATU/DIEA, DMF, 130.0 mM) of 60%, an EC50 (F508del in NIH 3T3 cells) of under 1000 nM and an Emax (F508del in NIH 3T3 cells) of over 60%. The “Ent. A Max Activity (%)” value [2] was “++ (++ is 30-60%)” and the EC50 [2] was 3 to 30 µM.
For `Cc1cccc(C)c1-c1cc2nc(n1)NS(=O)(=O)c1cccc(c1)COC1CC(CN(C(=O)OC(C)(C)C)C1)O2` (stereo not shown) [Compound 119, tert-Butyl 19-(2,6-dimethylphenyl)-15,15-dioxo-2,8-dioxa-15λ^6-thia-5,16,18,21-tetraazatetracyclo[15.3.1.13,7.110,14]tricosa-1(21),10,12,14(22),17,19-hexaene-5-carboxylate], the ring closure, yield after HPLC (from tert-butyl 3,5-dihydroxypiperidine-1-carboxylate + 3-(bromomethyl)-N-[4-chloro-6-(2,6-dimethylphenyl)pyrimidin-2-yl]benzenesulfonamide?, snar bond, 14-membered ring, NaH, DMF, 50.0 mM, 2 steps) was 15% and the “Ent. A Max Activity (%)” value [2] was “+ (+ is <30%)”.
In the case of `Cc1cccc(C)c1-c1cc2nc(n1)NS(=O)(=O)c1cccc(c1)OC(Cc1ccccc1)CCO2` (stereo not shown) [Compound 120], the “Ent. B Max Activity (%)” value [3] is reported as “++ (++ is 30-60%)” and the EC50 [3] is reported as under 1000 nM.
For `Cc1cccc(C)c1-c1cc2nc(n1)NS(=O)(=O)c1cccc(c1)OC(c1ccccc1)CCO2` (stereo not shown) [Compound 121], the “Ent. B Max Activity (%)” value [3] was “+++ (+++ is >60%)” and the EC50 [3] was under 1000 nM.
For `Cc1cccc(C)c1-c1cc2nc(n1)NS(=O)(=O)c1cccc(c1)OCCCO2` [Compound 122], the “Ent. B Max Activity (%)” value [3] was “+ (+ is <30%)” and the EC50 [3] was 3000 to 30000 nM.
